Experimental findings from patent publication US10791730B2, “Composition and methods for cryopreservation of hUTC” (DePuy Synthes Products, Inc., priority 2016, dated 2020) are described below.

The subject of the assay is umbilical cord tissue. Description: Isolation of cells from umbilical cord tissue using varying enzyme combinations. It is filed as cell-based, human. Set-up: key: + = good; ++ = very good; +++ = excellent; X = no success. To be noted: enzyme digest of umbilical cord tissue. As for the experimental part:
Umbilical cords were obtained from National Disease Research Interchange (NDRI, Philadelphia, Pa.). The tissues were obtained following normal deliveries. The cell isolation protocols were performed aseptically in a laminar flow hood. To remove blood and debris, the cord was washed in phosphate buffered saline (PBS; Invitrogen, Carlsbad, Calif.) in the presence of penicillin at 100 U/ml, streptomycin at […] and amphotericin B at 0.25 μg/ml (Invitrogen Carlsbad, Calif.). The tissues were then mechanically dissociated in 150 cm^2 tissue culture plates in the presence of 50 ml of medium (DMEM-low glucose or DMEM-high glucose; Invitrogen) until the tissue was minced into a fine pulp. The chopped tissues were transferred to 50 ml conical tubes (approximately 5 g of tissue per tube).
The tissue was then digested in either DMEM-low glucose medium or DMEM-high glucose medium, each containing penicillin at 100 U/ml, streptomycin at […], amphotericin B at 0.25 μg/ml and the digestion enzymes. In some experiments an enzyme mixture of collagenase and dispase was used (“C:D”) (collagenase (Sigma, St Louis, Mo.), 500 U/ml; and dispase (Invitrogen), 50 U/ml, in DMEM-Low glucose medium). In other experiments a mixture of collagenase, dispase and hyaluronidase (“C:D:H”) was used (C:D:H=collagenase, 500 U/ml; dispase, 50 U/ml; and hyaluronidase (Sigma), 5 U/ml, in DMEM-Low glucose). The conical tubes containing the tissue, medium and digestion enzymes were incubated at 37° C. in an orbital shaker (Environ, Brooklyn, N.Y.) at 225 rpm for 2 hours.
After digestion, the tissues were centrifuged at 150×g for 5 minutes, the supernatant was aspirated. The pellet was resuspended in 20 ml of growth medium (DMEM:Low glucose (Invitrogen), 15% (v/v) fetal bovine serum (FBS; defined fetal bovine serum; Lot #AND18475; Hyclone, Logan, Utah), 0.001% (v/v) 2-mercaptoethanol (Sigma), penicillin at 100 U/ml, streptomycin at 100 μg/ml, and amphotericin B at 0.25 μg/ml (each from Invitrogen, Carlsbad, Calif.)). The cell suspension was filtered through a 70 μm nylon BD FALCON Cell Strainer (BD Biosciences, San Jose, Calif.). An additional 5 ml rinse comprising growth medium was passed through the strainer. The cell suspension was then passed through a 40-μm nylon cell strainer (BD Biosciences, San Jose, Calif.) and chased with a rinse of an additional 5 ml of growth medium.
The filtrate was resuspended in growth medium (total volume 50 ml) and centrifuged at 150×g for 5 minutes. The supernatant was aspirated and the cells were resuspended in 50 ml of fresh growth medium. […]
After the final centrifugation, supernatant was aspirated and the cell pellet was resuspended in 5 ml of fresh growth medium. The number of viable cells was determined using trypan blue staining. […]

With Collagenase, the “Cell Expansion” value is listed as “X” and the “Cells Isolated” value is listed as “X”.

In the case of Hyaluronidase, the “Cell Expansion” value was “X” and the “Cells Isolated” value is recorded as “X”.
